Experiments:
Bcl-XL = Bcl-XL (Homo sapiens, UniProt Q07817); test: Inhibition of Bcl-XL (disruption of Bcl-XL/Bim interaction); assay type: binding; conditions: for % Inhibition (25 μM) Bcl-XL / inhibition at 25 µM: compound at 25 μM; for % Inhibition (50 μM) Bcl-XL / inhibition at 50 µM: compound at 50 μM
Method: (§1) In a subsequent study, a structurally diverse library of forty five thio acids and thirty eight sulfonyl azides (identified above) was screened in parallel against Mcl-1 and Bcl-XL using the above mentioned approach. Several potential hit combinations were identified (Table 3). All of these kinetic TGS hit compounds were synthesized (identified above and in Table 3). All the reactions were performed at 20-30 mg scale. The 9-fluorenylmethyl thioester was placed in a 2.0 mL vial and 3.5% DBU/dry DMF solution was added (per 1 μmol of thioester, 4.7 μL, of 3.5% DBU/dry DMF solution was added) and the reaction was stirred for one minute. Then the sulfonylazide (1 eq to thioester) was added to the reaction mixture and immediately bubbling was observed. After the reaction was completed (approximately one minute, monitored by LC-MS) water (200 μL) was added and the pH was adjusted to 7.0 using 1M HCl solution. The reaction mixture was extracted with DCM until there is no product in the aqueous layer (checked by TLC or LC-MS). The product was purified by flash chromatography. Testing of these acylsulfonamides has shown that the hit compounds disrupt the Bcl-XL/Bim or Mcl-1/Bim interaction (Table 3).

Mcl-1 = Mcl-1 (Homo sapiens, UniProt Q07820); test: Inhibition of Mcl-1 (disruption of Mcl-1/Bim interaction); assay type: binding; conditions: for % Inhibition (25 μM) Mcl-1 / inhibition at 25 µM: compound at 25 μM; for % Inhibition (50 μM) Mcl-1 / inhibition at 50 µM: compound at 50 μM
Method: as §1

Bcl-XL, sequence (Q07817 whole entry, species assumed): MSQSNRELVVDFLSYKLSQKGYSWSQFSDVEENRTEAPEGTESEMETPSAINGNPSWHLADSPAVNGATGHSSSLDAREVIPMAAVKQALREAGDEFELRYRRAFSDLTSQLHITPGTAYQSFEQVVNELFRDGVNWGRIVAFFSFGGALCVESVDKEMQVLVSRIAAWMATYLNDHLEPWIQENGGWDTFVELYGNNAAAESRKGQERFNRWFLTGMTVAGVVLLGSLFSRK
Mcl-1, sequence (Q07820 whole entry, species assumed): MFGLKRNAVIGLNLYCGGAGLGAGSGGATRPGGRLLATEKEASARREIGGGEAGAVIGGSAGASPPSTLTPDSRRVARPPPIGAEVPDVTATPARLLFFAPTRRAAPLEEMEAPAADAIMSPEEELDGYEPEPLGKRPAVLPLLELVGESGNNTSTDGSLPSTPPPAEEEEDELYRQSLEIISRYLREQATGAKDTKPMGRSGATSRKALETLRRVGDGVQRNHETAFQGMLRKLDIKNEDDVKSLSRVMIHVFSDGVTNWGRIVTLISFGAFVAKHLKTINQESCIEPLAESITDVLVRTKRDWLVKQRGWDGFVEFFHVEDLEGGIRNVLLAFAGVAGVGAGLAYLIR

Structure (SMILES)	% Inhibition (25 μM) Bcl-XL (Bcl-XL) [%]	% Inhibition (50 μM) Bcl-XL (Bcl-XL) [%]	% Inhibition (25 μM) Mcl-1 (Mcl-1) [%]	% Inhibition (50 μM) Mcl-1 (Mcl-1) [%]	also measured
NS(=O)(=O)c1ccc(CN(CCSc2ccccc2)Cc2ccc(S(=O)(=O)NC(=O)CC3Sc4ccccc4NC3=O)cc2)cc1 (stereo not shown) [SZ10TA34]	17.4	27.0	19.4	64.1	–
O=C(CC1Sc2ccccc2NC1=O)NS(=O)(=O)c1ccc(CN(CCSc2ccccc2)Cc2c(F)cccc2Cl)cc1 (stereo not shown) [SZ15TA34]	19.6	28.6	47.4	82.8	–
[N-]=[N+]=NS(=O)(=O)c1ccc(CN(CCSc2ccccc2)Cc2ccc(S(=O)(=O)NC(=O)c3cccc4ccccc34)cc2)cc1 [SZ9TA7]	–	–	–	–	inhibition at 50 µM (Bcl-XL): 44.5%; IC50 (Mcl-1): 8.2 µM
COc1ccccc1-c1ccc(C(=O)NS(=O)(=O)c2ccc(NCCSc3ccccc3)c([N+](=O)[O-])c2)cc1 [SZ4TA21]	–	–	44.7	80.6	–
CC1(C)CCN(c2ccc(C(=O)NS(=O)(=O)c3ccc4ccc(S(=O)(=O)NCCSc5ccccc5)cc4c3)cc2)CC1 [SZ7TA2]	–	–	–	–	IC50 (Bcl-XL): 28.6 µM; inhibition at 25 µM (Bcl-XL): 15.5%; inhibition at 50 µM (Bcl-XL): 73%; IC50 (Mcl-1): 16.9 µM; inhibition at 25 µM (Mcl-1): 49.6%; inhibition at 50 µM (Mcl-1): 93.9%
COc1cc2c(cc1OC)C(c1ccccc1)N(Cc1ccc(S(=O)(=O)NC(=O)c3ccc(N4CCC(C)(C)CC4)cc3)cc1)CC2 (stereo not shown) [SZ8TA2]	–	–	14.8	24.9	–
COc1cccc(CN(CCSc2ccccc2)Cc2ccc(S(=O)(=O)NC(=O)c3ccc(OC(F)(F)F)cc3)cc2)c1 [SZ17TA8]	–	–	–	–	inhibition at 25 µM (Bcl-XL): 4.1%; inhibition at 50 µM (Bcl-XL): < 2%; IC50 (Mcl-1): 8.4 µM; inhibition at 25 µM (Mcl-1): 60.5%; inhibition at 50 µM (Mcl-1): 100%
COc1cccc(CN(CCSc2ccccc2)Cc2ccc(S(=O)(=O)NC(=O)c3ccc4c(ccn4Cc4ccc(C(F)(F)F)cc4C(F)(F)F)c3)cc2)c1 [SZ17TA30]	<2.0	<2.0	18.0	15.8	–
COc1cccc(CN(CCSc2ccccc2)Cc2ccc(S(=O)(=O)NC(=O)c3ccc(-c4ccccn4)cc3)cc2)c1 [SZ17TA25]	38.6	54.5	64.9	93.6	–
O=C(NS(=O)(=O)c1ccc(NCCSc2ccccc2)c([N+](=O)[O-])c1)c1ccc2c(ccn2Cc2ccc(C(F)(F)F)cc2C(F)(F)F)c1 [SZ4TA30]	–	–	–	–	IC50 (Bcl-XL): > 50 µM; inhibition at 25 µM (Bcl-XL): 41.2%; inhibition at 50 µM (Bcl-XL): 42.6%; IC50 (Mcl-1): 26.1 µM; inhibition at 25 µM (Mcl-1): 68.7%
COc1cccc(CN(CCSc2ccccc2)Cc2ccc(S(=O)(=O)NC(=O)c3ccc(Cc4ccc(OC)c(OC)c4OC)cc3)cc2)c1 [SZ17TA24]	–	–	65.1	74.1	–
O=C(NS(=O)(=O)c1ccc(CN(CCSc2ccccc2)Cc2ccc3c(c2)OCO3)cc1)c1cccc(NCCc2ccccc2)c1 [SZ31TA44]	<2.0	<2.0	14.9	36.5	–
O=C(NS(=O)(=O)c1ccc(CNc2cccc([N+](=O)[O-])c2)cc1)c1ccc(CN2C(=O)C(c3ccc(F)cc3F)=C(c3ccc(F)cc3F)C2=O)cc1 [SZ12TA42]	–	–	–	–	inhibition at 25 µM (Bcl-XL): 14%; inhibition at 50 µM (Bcl-XL): 22.6%; IC50 (Mcl-1): 13.6 µM; inhibition at 25 µM (Mcl-1): 77.3%
COc1cccc(CN(CCSc2ccccc2)Cc2ccc(S(=O)(=O)NC(=O)c3ccc4c(c3)c(C(=O)C3CCCCC3)cn4C)cc2)c1 [SZ17TA40]	7.5	<2.0	25.8	58.5	–
COc1ccc(Cc2ccc(C(=O)NS(=O)(=O)c3ccc(-c4ccc(Oc5ccccc5)cc4)cc3)cc2)c(OC)c1OC [SZ35TA24]	–	–	72.3	76.4	–
O=C(NS(=O)(=O)c1ccc(NCCSc2ccccc2)c([N+](=O)[O-])c1)c1ccc(CCc2ccccn2)cc1 [SZATA17]	83.7	90.6	30.8	44.7	IC50 (Bcl-XL): 2.08 µM; IC50 (Mcl-1): 60.6 µM
COc1ccc(Cc2ccc(C(=O)NS(=O)(=O)c3ccc(CN(CCSc4ccccc4)Cc4c(F)cccc4Cl)cc3)cc2)c(OC)c1OC [SZ15TA24]	14.7	18.9	54.4	70.8	–
CC1(C)CCN(c2ccc(C(=O)NS(=O)(=O)c3ccc(CNc4cccc([N+](=O)[O-])c4)cc3)cc2)CC1 [SZ12TA2]	–	–	7.1	54.1	–
O=C(Cn1c2ccccc2c2ccccc21)NS(=O)(=O)c1ccc(CN(CCSc2ccccc2)Cc2ccc3c(c2)OCO3)cc1 [SZ31TA15]	–	–	–	–	inhibition at 25 µM (Bcl-XL): 18.5%; inhibition at 50 µM (Bcl-XL): 21.4%; IC50 (Mcl-1): 14 µM; inhibition at 25 µM (Mcl-1): 82%
COc1cc2c(cc1OC)C(c1ccccc1)N(CCS(=O)(=O)NC(=O)c1ccc(CN3C(=O)C(c4ccc(F)cc4F)=C(c4ccc(F)cc4F)C3=O)cc1)CC2 (stereo not shown) [SZ27TA42]	14.1	5.2	18.3	52.3	–

Structure (SMILES)	% Inhibition (25 μM) Bcl-XL (Bcl-XL) [%]	% Inhibition (50 μM) Bcl-XL (Bcl-XL) [%]	% Inhibition (25 μM) Mcl-1 (Mcl-1) [%]	% Inhibition (50 μM) Mcl-1 (Mcl-1) [%]	also measured
NS(=O)(=O)c1ccc(CN(CCSc2ccccc2)Cc2ccc(S(=O)(=O)NC(=O)c3ccc4oc(-c5ccccc5)cc4c3)cc2)cc1 [SZ10TA41]	–	–	2.8	12.4	–
COc1cc2c(cc1OC)C(c1ccccc1)N(Cc1ccc(S(=O)(=O)NC(=O)CCCN3C(=O)C(c4ccc(F)cc4F)=C(c4ccc(F)cc4F)C3=O)cc1)CC2 (stereo not shown) [SZ8TA20]	–	–	–	–	inhibition at 25 µM (Bcl-XL): 9.1%; inhibition at 50 µM (Bcl-XL): < 2%; inhibition at 25 µM (Mcl-1): 23.5%
CCOc1ccc(-c2ccc3c(c2)c(C(=O)NS(=O)(=O)c2ccc(CNCCSc4ccccc4)cc2)cn3C)cc1F [SZ6TA23]	–	–	<2.0	<2.0	–
COc1cccc(CN(CCSc2ccccc2)Cc2ccc(S(=O)(=O)NC(=O)CCCN3C(=O)C(c4ccc(F)cc4F)=C(c4ccc(F)cc4F)C3=O)cc2)c1 [SZ17TA20]	<2.0	<2.0	7.2	12.4	–
O=C(NS(=O)(=O)c1ccc(CN(CCSc2ccccc2)Cc2c(F)cccc2Cl)cc1)c1ccccc1 [SZ15TA1]	–	–	–	–	inhibition at 50 µM (Bcl-XL): 53.4%; IC50 (Mcl-1): 9.7 µM
O=C(NS(=O)(=O)CCN(CCSc1ccccc1)Cc1ccc2c(c1)OCO2)c1ccc(C(c2c[nH]c3ccccc23)c2c[nH]c3ccccc23)cc1 [SZ28TA31]	8.1	<2.0	22.6	25.8	–
CC(C)(C)c1ccc(-c2ccc(S(=O)(=O)NC(=O)c3ccc4c(ccn4Cc4ccc(C(F)(F)F)cc4C(F)(F)F)c3)cc2)cc1 [SZ11TA30]	8.5	<2.0	53.1	63.6	–
CC1(C)CCN(c2ccc(C(=O)NS(=O)(=O)CCN3CCc4ccccc4C3)cc2)CC1 [SZ23TA2]	–	–	4.5	<2.0	–
CCOc1ccc(-c2ccc3c(c2)c(C(=O)NS(=O)(=O)c2ccc(CN4CCN(c5ccccc5)CC4)cc2)cn3C)cc1F [SZ1TA23]	–	–	18.7	21.5	–
Cc1nc(-c2ccccc2)sc1C(=O)NS(=O)(=O)c1ccc(-c2ccc(Oc3ccccc3)cc2)cc1 [SZ35TA3]	–	–	18.8	87.2	–
COc1ccccc1-c1ccc(C(=O)NS(=O)(=O)c2ccc(-c3ccc(C(F)(F)F)cc3)cc2)cc1 [SZ16TA21]	–	–	26.0	80.9	–
O=C(NS(=O)(=O)c1ccc(-c2ccc(Oc3ccccc3)cc2)cc1)c1ccc(CCc2ccccn2)cc1 [SZ35TA17]	–	–	18.8	89.2	–
O=C(NS(=O)(=O)CCN1CCC(Cc2ccccc2)CC1)c1ccc2c(ccn2Cc2ccc(C(F)(F)F)cc2C(F)(F)F)c1 [SZ24TA30]	–	–	18.1	11.4	–
O=C(NS(=O)(=O)c1ccc(CN(CCSc2ccccc2)Cc2c(F)cccc2Cl)cc1)c1cccc2ccccc12 [SZ15TA7]	–	–	–	–	IC50 (Mcl-1): 15.4 µM
CC(C)(C)c1ccc(-c2ccc(S(=O)(=O)NC(=O)c3ccc(-c4ccccn4)cc3)cc2)cc1 [SZ11TA25]	–	–	–	–	inhibition at 25 µM (Mcl-1): 20.1%; inhibition at 50 µM (Mcl-1): 65.8%
COc1ccccc1-c1ccc(C(=O)NS(=O)(=O)c2ccc(CN(CCSc3ccccc3)Cc3ccc(S(N)(=O)=O)cc3)cc2)cc1 [SZ10TA21]	–	–	52.3	57.3	–
COc1cc2c(cc1OC)C(c1ccccc1)N(Cc1ccc(S(=O)(=O)NC(=O)c3ccc(Cc4ccc(OC)c(OC)c4OC)cc3)cc1)CC2 (stereo not shown) [SZ8TA24]	–	–	43.6	79.2	–
CCOc1ccc(-c2ccc3c(c2)c(C(=O)NS(=O)(=O)c2ccc(CNc4cccc([N+](=O)[O-])c4)cc2)cn3C)cc1F [SZ12TA23]	–	–	6.1	21.5	–
O=C(NS(=O)(=O)c1ccc(-c2ccc(Oc3ccccc3)cc2)cc1)c1cccc2ccccc12 [SZ35TA7]	–	–	28.6	87.8	–

Reference: patent US10551389B2, “Target binding molecules identified by kinetic target-guided synthesis” (UNIVERSITY OF SOUTH FLORIDA, priority 2013, dated 2020)
